# Test results taken from article PMC3593249 (Biochemical pharmacology, 2013).
# Several values for one entry are separate records, joined by “and”; a condition that tells them apart may be missing. Equal values may be shown once.
# How the values were obtained:
# α7 nAChR = settings: cited from earlier work
# α7 nAChR S36T mutant [1] = target: T1, α7 nAChR S36T mutant (Homo sapiens, UniProt P36544, S58T); assay: Residual desensitization; format: cell-based; settings: read-out: IC50 (RD curve), potency for producing long-lasting desensitization, 12 s applications
# α7 nAChR S36G mutant [2] = target: T2, α7 nAChR S36G mutant (Homo sapiens, UniProt P36544, S58G); format: cell-based; settings: for Imax: maximal response relative to the maximal response from ACh (ACh = 1); for EC50: net charge CRC, parenthetical = curve-fit error
# α7 nAChR S36C mutant [3] = target: T3, α7 nAChR S36C mutant (Homo sapiens, UniProt P36544, S58C); assay: Concentration-response curves; format: cell-based; settings: for Imax: maximal response relative to the maximal response from ACh (ACh = 1); for EC50: net charge CRC, parenthetical = curve-fit error
# α7 nAChR S36V mutant [4] = target: T4, α7 nAChR S36V mutant (Homo sapiens, UniProt P36544, S58V); assay: Concentration-response curves; format: cell-based; settings: for Imax: maximal response relative to the maximal response from ACh (ACh = 1); for EC50: net charge CRC, parenthetical = curve-fit error
# α7 nAChR S36A mutant [5] = target: T5, α7 nAChR S36A mutant (Homo sapiens, UniProt P36544, S58A); assay: Residual desensitization; format: cell-based; settings: read-out: IC50 (RD curve), potency for producing long-lasting desensitization, 12 s applications
# α7 nAChR S36A mutant [6] = target: T5, α7 nAChR S36A mutant; assay: Concentration-response curves; format: cell-based; settings: for Imax: maximal response relative to the maximal response from ACh (ACh = 1); for EC50: net charge CRC, parenthetical = curve-fit error
# α7 nAChR S36T mutant [7] = target: T1, α7 nAChR S36T mutant; assay: Concentration-response curves; format: cell-based; settings: for Imax: maximal response relative to the maximal response from ACh (ACh = 1); for EC50: net charge CRC, parenthetical = curve-fit error
# WT α7 nAChR [8] = target: T6, WT α7 nAChR (Homo sapiens, UniProt P36544); assay: Concentration-response curves; format: cell-based; settings: for Imax: maximal response relative to the maximal response from ACh (ACh = 1); for EC50: net charge CRC, potency for agonism, parenthetical = curve-fit error
# α7 nAChR S36C mutant [9] = target: T3, α7 nAChR S36C mutant; assay: Residual desensitization; format: cell-based; settings: read-out: IC50 (RD curve), potency for producing long-lasting desensitization, 12 s applications
# α7 nAChR S36G mutant [10] = target: T2, α7 nAChR S36G mutant; assay: Residual desensitization; format: cell-based; settings: read-out: IC50 (RD curve), potency for producing long-lasting desensitization, 12 s applications
# α7 nAChR S36I mutant [11] = target: T7, α7 nAChR S36I mutant (Homo sapiens, UniProt P36544, S58I); assay: Concentration-response curves; format: cell-based; settings: for Imax: maximal response relative to the maximal response from ACh (ACh = 1); for EC50: net charge CRC, parenthetical = curve-fit error
# α7 nAChR S36I mutant [12] = target: T7, α7 nAChR S36I mutant; assay: Residual desensitization; format: cell-based; settings: read-out: IC50 (RD curve), potency for producing long-lasting desensitization, 12 s applications
# α7 nAChR S36V mutant [13] = target: T4, α7 nAChR S36V mutant; assay: Residual desensitization; format: cell-based; settings: read-out: IC50 (RD curve), potency for producing long-lasting desensitization, 12 s applications
# WT α7 nAChR [14] = target: T6, WT α7 nAChR; assay: Induction of Ds: 30 µM PNU-120596 applied after 5-minute drug bath; format: cell-based; settings: for desensitized state after high-concentration incubation (PNU-120596 response): high concentration: BA 300 µM, 4MeBA 100 µM
# WT α7 nAChR [15] = target: T6, WT α7 nAChR; assay: Residual desensitization; format: cell-based; settings: for IC50: read-out: IC50 (RD curve), potency for producing long-lasting desensitization, 12 s applications
# α7 nAChR S36G mutant [16] = target: T2, α7 nAChR S36G mutant; assay: 5-minute bath incubation, 1 mM ACh probe and post-control ACh applications; format: cell-based; settings: 30 µM drug bath, 5 minutes, then 1 mM ACh probe
# WT α7 nAChR [17] = target: T6, WT α7 nAChR; assay: as above; format: cell-based
# T7 sequence (P36544 23-502 S58I): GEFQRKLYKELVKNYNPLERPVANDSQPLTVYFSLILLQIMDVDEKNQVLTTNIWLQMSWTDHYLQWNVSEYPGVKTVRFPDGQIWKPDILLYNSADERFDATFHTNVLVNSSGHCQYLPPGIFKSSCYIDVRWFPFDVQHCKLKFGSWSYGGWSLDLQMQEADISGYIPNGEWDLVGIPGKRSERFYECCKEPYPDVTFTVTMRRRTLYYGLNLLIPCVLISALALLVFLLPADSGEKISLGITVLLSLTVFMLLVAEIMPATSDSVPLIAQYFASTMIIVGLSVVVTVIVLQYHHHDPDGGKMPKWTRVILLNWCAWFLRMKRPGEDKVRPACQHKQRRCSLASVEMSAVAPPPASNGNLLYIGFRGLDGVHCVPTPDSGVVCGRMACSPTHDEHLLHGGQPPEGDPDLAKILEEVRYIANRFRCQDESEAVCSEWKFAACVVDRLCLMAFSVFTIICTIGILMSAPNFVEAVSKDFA
# T6 sequence (P36544 23-502): as the sequence (P36544 23-502 S58I) above, with I36S counted along it
# T4 sequence (P36544 23-502 S58V): as the sequence (P36544 23-502 S58I) above, with I36V counted along it
# T2 sequence (P36544 23-502 S58G): as the sequence (P36544 23-502 S58I) above, with I36G counted along it
# T5 sequence (P36544 23-502 S58A): as the sequence (P36544 23-502 S58I) above, with I36A counted along it
# T1 sequence (P36544 23-502 S58T): as the sequence (P36544 23-502 S58I) above, with I36T counted along it
# T3 sequence (P36544 23-502 S58C): as the sequence (P36544 23-502 S58I) above, with I36C counted along it
SMILES,IC50 (α7 nAChR S36T mutant [1]),Imax (α7 nAChR S36G mutant [2]),EC50 (α7 nAChR S36G mutant [2]),Imax (α7 nAChR S36C mutant [3]),EC50 (α7 nAChR S36C mutant [3]),Imax (α7 nAChR S36V mutant [4]),EC50 (α7 nAChR S36V mutant [4]),IC50 (α7 nAChR S36A mutant [5]),Imax (α7 nAChR S36A mutant [6]),EC50 (α7 nAChR S36A mutant [6]),Imax (α7 nAChR S36T mutant [7]),EC50 (α7 nAChR S36T mutant [7]),Imax (WT α7 nAChR [8]),EC50 (WT α7 nAChR [8]),IC50 (α7 nAChR S36C mutant [9]),IC50 (α7 nAChR S36G mutant [10]),Imax (α7 nAChR S36I mutant [11]),EC50 (α7 nAChR S36I mutant [11]),IC50 (α7 nAChR S36I mutant [12]),IC50 (α7 nAChR S36V mutant [13]),further results
"Oc1ccc(C=C2CCCN=C2c2cccnc2)c(O)c1 [2,4diOHBA, 3-(2,4-dihydroxybenzylidene)anabaseine]",–,–,–,–,–,–,–,–,–,–,–,–,–,–,–,–,–,–,–,–,RD production (α7 nAChR): practically none
"Cc1ccc(C=C2CCCN=C2c2cccnc2)cc1 [4MeBA, 3-(4-methylbenzylidene)anabaseine]",450 µM,0.31(0.02),9.5 µM,0.14(0.02),5.5 µM,0.15(0.04),3.5 µM,145 µM,0.19(0.04),7.9 µM,0.19(0.02),34 µM,0.14(0.01),30 µM and 29 µM,52 µM,51 µM,0.088(0.007),17.6 µM,153 µM,91 µM,"desensitized state after high-concentration incubation (PNU-120596 response) (WT α7 nAChR [14]): induced exclusively into Di; reduction of post-control ACh responses (WT α7 nAChR [15]; at concentration of greatest evoked response, approximately 300 µM): 80%; IC50 (WT α7 nAChR [15]): 110 µM"
"Oc1ccc(/C=C2\CCCN=C2c2cccnc2)cc1 [4OHBA, (E)-3-(4-hydroxybenzylidene)anabaseine]",> 300 µM,0.89(0.06),0.53 µM,0.63(0.02),0.75 µM,0.50(0.03),0.25 µM,203 µM,0.73(0.03),0.57 µM,0.50(0.01),5.9 µM,0.385(0.006),6 µM and 5.5 µM,233 µM,134 µM,0.46(0.03),2.3 µM,> 300 µM,61 µM,"ACh control responses after 5-minute incubation (α7 nAChR S36G mutant [16]): nearly complete suppression of the ACh control responses; induction of Ds (response to PNU-120596 after drug bath) (WT α7 nAChR [14]; 30 µM drug bath, 5 minutes, 30 µM PNU-120596): relatively little Ds; reduction of post-control ACh responses (WT α7 nAChR [15]; at concentrations required for maximal evoked responses, 30 µM – 300 µM): 10–20%; IC50 (RD curve) (WT α7 nAChR [15]; potency for producing long-lasting desensitization, 12 s applications): far greater than the concentration range studied; IC50 (WT α7 nAChR [15]): > 300 µM; recovery during post-control ACh applications after 5-minute incubation (WT α7 nAChR [17]; 30 µM drug bath, 5 minutes): fully recovered; post-control ACh responses, low versus high concentration incubation (WT α7 nAChR [17]; 4OHBA low 3 µM, high 30 µM): no significant difference"
"C(=C1CCCN=C1c1cccnc1)c1ccccc1 [BA, benzylidene anabaseine]",720 µM,0.316(0.003),44 µM,0.30(0.01),22 µM,0.27(0.05),27 µM,91 µM,0.45(0.02),27 µM,0.19(0.01),68 µM,0.31(0.01),40 µM and 39 µM,189 µM,357 µM,0.18(0.02),81 µM,> 300 µM,217 µM,desensitized state after high-concentration incubation (PNU-120596 response) (WT α7 nAChR [14]): induced exclusively into Di; IC50 (WT α7 nAChR [15]): 270 µM
"COc1ccc(/C=C2\CCCN=C2c2cccnc2)c(OC)c1 [GTS-21, 3-(2,4-dimethoxybenzylidene)anabaseine]",–,–,–,–,–,–,–,–,–,–,–,–,–,–,–,–,–,–,–,–,RD production (α7 nAChR): significant amounts of RD
